We go through two molecules from PMC11059313 (Methods in molecular biology (Clifton, N.J.), 2023).

Non-standard residues stand in square brackets, D forms with d. No end group written: not given here. pY = N[C@@H](Cc1ccc(OP(=O)(O)O)cc1)C(=O)O

For data set [1] the following is noted: pH 7.4.
Data set [2] deals with T1, p120RasGAP N-terminal SH2 domain (residues 174-280, C236S, C261S) (UniProt P20936 174-280, C236S | C261S).
T1 sequence (looked up): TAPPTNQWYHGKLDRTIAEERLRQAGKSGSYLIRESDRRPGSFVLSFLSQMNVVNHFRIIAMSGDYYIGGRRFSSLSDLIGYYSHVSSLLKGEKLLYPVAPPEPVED
The data set is described as follows: co-crystallisation.

As for D[pY]AEPMDA [pY-1087], in data set [1], the “Maximum Solubility” value amounted to 10 mg/mL.

B1: p190RhoGAP pTyr-1105 phosphopeptide (residues 1100-1112) (peptide)
peptide: Ac-EEENI[pY]SVPHDST-NH2
SMILES: CC[C@H](C)[C@H](NC(=O)[C@H](CC(N)=O)NC(=O)[C@H](CCC(=O)O)NC(=O)[C@H](CCC(=O)O)NC(=O)[C@H](CCC(=O)O)NC(C)=O)C(=O)N[C@@H](Cc1ccc(OP(=O)(O)O)cc1)C(=O)N[C@@H](CO)C(=O)N[C@H](C(=O)N1CCC[C@H]1C(=O)N[C@@H](Cc1c[nH]cn1)C(=O)N[C@@H](CC(=O)O)C(=O)N[C@@H](CO)C(=O)N[C@H](C(N)=O)[C@@H](C)O)C(C)C
With B1, the binding result in data set [2] is listed as “binds”.
